Reference: US20080108694A1, “Novel Macrocycles and Uses Thereof” (priority 2003, published 2008)
≈ marks a conversion by molar mass, not a printed value. Where two headings read alike, the source gives them in different places.

Legend:
MCF7 = assay: Alamar blue proliferation assay, growth inhibition of MCF7 breast cancer cells; type: cell-based, human; conditions: for IC50: Homo sapiens
Source text: Biological Evaluation of Cycloproparadicicol Analogues. As discussed earlier, it appears that the inhibition of Hsp90 induces the proteasomal degradation of various oncogenic proteins, thereby leading to inhibition of tumor cell growth. We hoped to evaluate our synthetic analogues for their growth inhibition activity against MCF breast cancer cells. […] Further modifications of 27α, however, decreased its potency.
Cell Culture. The human cancer line MCF7 was obtained from American Type Culture Collection (Manassas, Va., USA) and maintained in 1:1 mixture of DME:F12 supplemented with 10% heat-inactivated fetal bovine serum, 2 mM glutamine, 50 units/ml of penicillin and streptomycin, and incubated in a humidified 5% CO2/air atmosphere at 37° C. For the Alamar blue proliferation assay, 2×10^3 cells were plated in 96-well plates. Twenty four hours later, cells were treated with the compound for 72 or 120 hours. On day 3 or 5, Alamar Blue viability assay (AccuMe Westlake, Ohio) was performed as described elsewhere (White, M. J.; DiCaprio, M. J Greenberg, D. A. J. Neurosci. Methods 1996, 70, 195-200; incorporated herein by reference). IC50s were calculated as the doses of the compound required to inhibit cell growth by 50% of control values.

HER2 [1] = assay: Her2 degradation in drug-treated MCF-7 cells by immunoblotting; type: cell-based, human; conditions: for concentration at which Her2 is degraded: P85 control
Protocol: To confirm that the cytotoxicity was indeed due to the inhibition of Hsp90, we set out to investigate the degradation of Her2, one of the most sensitive client proteins of this chaperone. The expression levels of Her2 of drug-treated MCF-7 cells were analyzed using immunoblotting (FIG. 31). P85, used as a control, is not a client protein of Hsp90. As expected, the growth inhibition activities of the synthetic active analogues are reflected in their capacity to degrade Her2. […] Nonchlorinated difluoro compound 38 degraded Her2 at 1 μM, and its chlorinated counterpart 31, at 10 μM.
Immunoblotting. For immunoblotting, cells in culture were washed and harvested in PBS, and then lysed in NP-40 buffer (50 mMTris, pH 7.5, 1% Nonidet P-40, 150 mM NaCl, 2.5 mM Na3VO4, 10 mM phenylmethylsulfonyl fluoride, and 10 μM each leupeptin, aprotinin, and soybean trypsin inhibitor). Cell lysates were cleared by centrifugation at 14,000×g for 10 minutes, and supernatants were collected as the experimental samples. Protein concentrations were determined using BCA reagent (Pierce Chemical Co., Rockford, Ill.). Lysates were added to sample buffer [0.3125 M Tris-HCl (pH 6.8), 10% SDS, 50% glycerol, and 77.5 mg/ml DTT], and equal amounts of protein were resolved by 7% SDS-PAGE and transferred to nitrocellulose membranes. Blots were blocked in 5% nonfat milk in Tris-buffered saline [0.1% Tween 20, 10 mM Tris (pH 7.4), and 150 mM NaCl] and subsequently probed with antibody (HER2 rabbit polyclonal IgG, Santa Cruz Biotechnology, Santa Cruz, Calif.; and PI3 kinase P85, Upstate Cell Signaling Solutions, Lake Placid, N.Y.). After incubation with horseradish peroxidase-conjugated secondary antibodies, proteins were visualized by chemiluminescence using the ECL detection reagents (Amersham Corp., Piscataway, N.J.). To prepare lysate from xenograft tumors, tumor tissue was homogenized in 2% SDS lysis buffer for 30 s then processed as above.

[2] = rcm bond
[3] = tested on: small cell lung cancer cell line with defective Rb function; assay: Inhibition of small cell lung cancer cell line with defective Rb function; type: cell-based, human
Protocol: (§1) Growth assays were performed by seeding 10000 cells (MCF7, BT474 or N417) per well in 6-welldishes and incubating for 24 h before drug treatment. Drugs or vehicle were administered as outlined for each experiment, and cells were incubated for the time periods depicted and then the number quantified by a Coulter counter.

P. falciparum = conditions: cited from earlier work
KB cells = conditions: cited from earlier work
HER2 [4] = assay: Reduction of HER2 in MCF7 and BT474 cells (protein assay, gels); type: cell-based, human; conditions: tested at 0.5 μM through 5 μM
Protocol: As depicted in FIGS. 17 and 18, four analogues have been tested for their ability to reduce HER2 in MCF7 and BT474 cells. […] Furthermore, while the vinyl epoxide, a reactive moiety, may be responsible for undesired cytotoxicity, the cyclopropane is far more stabile to non-productive cellular nucleophiles.
The human cancer cell lines MCF7, BT474 and N417 were obtained from the American Type Culture Collection (Manassas, Va., USA) and maintained in a 1:1 mixture of DME:F12 supplemented with 2 mM glutamine, 50 U/mL penicillin, 50 U/mL streptomycin and 5% heat inactivated fetal bovie serum (Gemini Bioproducts) and incubated at 37° C. in 5% CO2.
Cells were grown to 60-70% confluence and exposed to drugs or DMSO vehicle for the indicated time periods. Lysates were prepared using 50 mM Tris pH 7.4, 2% SDS and 10% glycerol lysis buffer. Protein concentration was determined using the BCA kit (Pierce Chemical Co.) according to the manufacturer's instructions. Clarified protein lysates (20-50 μg) were electrophoretically resolved on denaturing SDS-PAGE, transferred to nitrocellulose and probed with the following primary antibodies: anti-Her2 (C-18).

[5] = tested on: breast cancer cell with wild type Rb; assay: Inhibition of breast cancer cell with wild type Rb; type: cell-based, human
Protocol: as §1

Hsp90 = conditions: cited from earlier work
MCF7 cells = assay: Growth of MCF7 cells (HER2 overexpressed, Rb positive) treated with radicicol and analogues; type: cell-based, human
[6] = cited from earlier work
[7] = MCF7, MCF breast cancer cells, 72 h treatment, read-out: IC50 value
[8] = MCF7 cells, 72 h treatment, read-out: IC50 (pM) Values of Cycloproparadicicol Analogues and Aigialomycin D
[9] = MCF breast cancer cells, 72 h treatment

C[C@@H]1C[C@H]2C[C@@H]2/C=C\C=C\[C@H](O)Cc2cc(O)cc(O)c2C(=O)O1 [27α]
IC50 (MCF7; [7]): 150000 pM | IC50 (MCF7; [8]): 150000 pM | concentration at which Her2 is degraded (HER2 [1]): 0.3 µM

C[C@H]1CC=C[C@H]2OC(C)(C)O[C@H]2CCC(O[Si](C)(C)C(C)(C)C)C[C]23[Co]4[Co]2[C]43C(=O)O1.[C-]#[O+].[C-]#[O+].[C-]#[O+].[C-]#[O+].[C-]#[O+].[C-]#[O+] (some centres unmarked)
ring closure, yield of all isomers ([2]; from C=CC[C@H](C)OC(=O)[C]12[Co]3[Co]1[C]32CC(CC[C@@H]1OC(C)(C)O[C@@H]1C=C)O[Si](C)(C)C(C)(C)C.[C-]#[O+].[C-]#[O+].[C-]#[O+].[C-]#[O+].[C-]#[O+].[C-]#[O+]): 80%

C[C@@H]1C[C@H]2C[C@@H]2\C=C/C=C/C(=N/O)Cc2c(Cl)c(O)cc(O)c2C(=O)O1 [(E)-30]
IC50 (MCF7; [8]): 282000 pM | capacity to degrade Her2 (HER2 [1]): less effective

17-alkylaminogeldanamycin [17-AGG, reference compound]
potency in cells with wild type Rb versus cells with defective Rb function [3]: much more potent against cells with wild type Rb than in cells with defective Rb function

C[C@@H]1C[C@H]2C[C@@H]2C=C/C=C/C(O[Si](C)(C)C(C)(C)C)C[C]23[Co]4[Co]2[C]43C(=O)O1.[C-]#[O+].[C-]#[O+].[C-]#[O+].[C-]#[O+].[C-]#[O+].[C-]#[O+] (some centres unmarked)
ring closure, yield of all isomers ([2]; from C=C[C@H]1C[C@@H]1C[C@@H](C)OC(=O)[C]12[Co]3[Co]1[C]32CC(/C=C/C=C/C)O[Si](C)(C)C(C)(C)C.[C-]#[O+].[C-]#[O+].[C-]#[O+].[C-]#[O+].[C-]#[O+].[C-]#[O+]): 57%

C[C@@H]1C[C@H]2C[C@@H]2/C=C\C=C\[C@H](O)Cc2c(Cl)c(O)cc(O)c2C(=O)O1 [28α]
IC50 (MCF7; [7]): 390000 pM | IC50 (MCF7; [8]): 390000 pM

C[C@@H]1C[C@H]2C[C@@H]2C=C/C=C/C(O[Si](C)(C)C(C)(C)C)CC#CC(=O)N1 (some centres unmarked)
ring closure, yield of all isomers ([2]; from C=C[C@H]1C[C@@H]1C[C@@H](C)NC(=O)C#CCC(/C=C/C=C/C)O[Si](C)(C)C(C)(C)C.[C-]#[O+].[C-]#[O+].[C-]#[O+].[C-]#[O+].[C-]#[O+].[C-]#[O+].[Co].[Co], 2 steps): 60%

C[C@H]1C/C=C/[C@@H](O)[C@@H](O)CC/C=C/c2cc(O)cc(O)c2C(=O)O1 [compound 46, Aigialomycin D]
IC50 (MCF7; MCF7, 72 h, read-out: IC50 (pM) Values of Cycloproparadicicol Analogues and Aigialomycin D): > 1e+07 pM | growth inhibition activity (MCF7; [9]): significantly less active than the cycloproparadicicol derivatives | concentration at which Her2 is degraded (HER2 [1]): > 10 µM | IC50 against P. falciparum (antimalarial activity) (P. falciparum): 6.6 µg/mL (≈ 19.7 µM) | IC50 against KB cells (antitumor activity) (KB cells): 3.0 µg/mL (≈ 8.97 µM)

CC(C)(C)[Si](C)(C)OC1/C=C/C=CCCCCOC(=O)[C]23[Co]4[Co]2[C]43C1.[C-]#[O+].[C-]#[O+].[C-]#[O+].[C-]#[O+].[C-]#[O+].[C-]#[O+] (centres unmarked)
ring closure, yield of all isomers ([2]; from C=CCCCCOC(=O)[C]12[Co]3[Co]1[C]32CC(/C=C/C=C/C)O[Si](C)(C)C(C)(C)C.[C-]#[O+].[C-]#[O+].[C-]#[O+].[C-]#[O+].[C-]#[O+].[C-]#[O+]): 71%

C[C@@H]1C[C@H]2C[C@@H]2/C=C\C=C\[C@@H](O)Cc2cc(O)cc(O)c2C(=O)O1 [27β]
IC50 (MCF7; [8]): > 500000 pM | growth inhibition activity (MCF7; [9]): inactive

C[C@@H]1C[C@H]2C[C@@H]2C=C/C=C/C(O[Si](C)(C)C(C)(C)C)CC#CC(=O)O1 (some centres unmarked)
ring closure, yield of all isomers ([2]; from C=C[C@H]1C[C@@H]1C[C@@H](C)OC(=O)[C]12[Co]3[Co]1[C]32CC(/C=C/C=C/C)O[Si](C)(C)C(C)(C)C.[C-]#[O+].[C-]#[O+].[C-]#[O+].[C-]#[O+].[C-]#[O+].[C-]#[O+], 2 steps): 51%

CO[C@H]1/C=C/C=C\[C@H]2C[C@@H]2C[C@@H](C)OC(=O)c2c(O)cc(O)cc2C1 [29α]
IC50 (MCF7; [8]): > 1e+07 pM | growth inhibition activity (MCF7; [9]): completely inactive

C[C@@H]1C[C@H]2C[C@@H]2/C=C\C=C\C(=O)Cc2c(Cl)c(O)cc(O)c2C(=O)O1 [compound 2, Cycloproparadicicol]
effectiveness in reducing HER2 relative to radicicol (HER2 [4]): at least as effective, if not better than radicicol | inhibition of breast cancer cell with wild type Rb [5]: potent inhibitors | inhibition of small cell lung cancer cell line with defective Rb function [3]: potent inhibitors | potency relative to 17-AGG in small cell lung cancer cell line with defective Rb function [3]: much more potent than 17-AGG | IC50 (MCF7; [8]): 54000 pM | growth inhibition activity (MCF7; [9]): most potent of the new compounds | concentration at which Her2 is degraded (HER2 [1]): 0.3 µM | binds to Hsp90 at (Hsp90): ca. 160 nM

C[C@@H]1C[C@H]2O[C@@H]2/C=C\C=C\C(=O)Cc2c(Cl)c(O)cc(O)c2C(=O)O1 [radicicol, reference compound]
efficacy in side by side experiment with radicicol (MCF7 cells): demonstrated efficacy | inhibition of breast cancer cell with wild type Rb [5]: potent inhibitors | inhibition of small cell lung cancer cell line with defective Rb function [3]: potent inhibitors | activity in in vivo (animal) models [6]: ineffective

C[C@@H]1C[C@@H]2[C@@H](/C=C\C=C\C(=O)Cc3c(Cl)c(O)cc(O)c3C(=O)O1)C2(F)F [compound 31, Difluorocycloproparadicicol]
IC50 (MCF7; [8]): 1e+07 pM | concentration at which Her2 is degraded (HER2 [1]): 10 µM

C[C@@H]1C[C@H]2C[C@@H]2\C=C/C=C/C(=N\O)Cc2c(Cl)c(O)cc(O)c2C(=O)O1 [(Z)-30]
IC50 (MCF7; [8]): 98000 pM | potency relative to the corresponding (E)-isomer (MCF7; MCF breast cancer cells, 72 h): 3 times | concentration at which Her2 is degraded (HER2 [1]): 0.3 µM

C[C@@H]1C[C@@H]2[C@@H](/C=C\C=C\C(=O)Cc3cc(O)cc(O)c3C(=O)O1)C2(F)F [compound 38, Difluorocyclopropamonocilin]
IC50 (MCF7; [8]): 3e+06 pM | concentration at which Her2 is degraded (HER2 [1]): 1 µM
